Experimental data: patent US8952024B2, “Herbicidal pyrimidone derivatives” (E I du Pont de Nemours and Company, priority 2009, dated 2015)

Key:
Format in all cases: in vivo
[1] = tested on: barnyardgrass (Echinochloa crus-galli); assay: Test A pre-/postemergence plant response
Procedure, shortened: (§1)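 Both pre- and postemergence treatments are applied simultaneously, using chemicals formulated in a non-phytotoxic solvent mixture with surfactant. Postemergence plants are 2–10 cm high with one to two leaves. After approximately ten days in a greenhouse, injury is scored visually from 0 (none) to 100 (complete control) relative to untreated plants.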

corn (Zea mays) = assay: Test A pre-/postemergence plant response
Procedure, shortened: as §1

[2] = tested on: giant foxtail (Setaria faberii); assay: Test A pre-/postemergence plant response
Procedure, shortened: as §1

[3] = tested on: large crabgrass (Digitaria sanguinalis); assay: Test A pre-/postemergence plant response
Procedure, shortened: as §1

[4] = tested on: morningglory (Ipomoea spp.); assay: Test A pre-/postemergence plant response; details: for Plant response rating, Morningglory: Preemergence, 0 to 100 scale, 0 = no effect, 100 = complete control
Procedure, shortened: as §1

[5] = tested on: pigweed (Amaranthus retroflexus); assay: Test A pre-/postemergence plant response
Procedure, shortened: as §1

[6] = tested on: velvetleaf (Abutilon theophrasti); assay: Test A pre-/postemergence plant response
Procedure, shortened: as §1

[7] = tested on: wheat (Triticum aestivum); assay: Test A pre-/postemergence plant response
Procedure, shortened: as §1

[8] = tested on: barnyardgrass (Echinochloa crus-galli); assay: Test B flooded paddy test; details: for Plant response rating, Barnyardgrass: Flood (flooded paddy test), 13 to 15 days
Procedure, shortened: (§2)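 Flooded-pot test: water raised to 3 cm above soil when treating, compound put in the water, level unchanged thereafter. Plants were at 2 leaves. Readout after 13 to 15 days, visual, relative to controls; 0 signifies no effect and 100 complete control.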

[9] = tested on: ducksalad (Heteranthera limosa); assay: Test B flooded paddy test; details: for Plant response rating, Ducksalad: Flood (flooded paddy test), 13 to 15 days
Procedure, shortened: as §2

rice (Oryza sativa) = assay: Test B flooded paddy test; details: for Plant response rating, Rice: Flood (flooded paddy test), 13 to 15 days
Procedure, shortened: as §2

[10] = tested on: umbrella sedge (Cyperus difformis); assay: Test B flooded paddy test; details: for Plant response rating, Sedge, Umbrella: Flood (flooded paddy test), 13 to 15 days
Procedure, shortened: as §2

[11] = Postemergence, 125 g ai/ha, 0 to 100 scale where 0 is no effect and 100 is complete control
[12] = Postemergence, 500 g ai/ha, visual injury, 0 to 100 scale (0 no effect, 100 complete control), approx. ten days
[13] = Preemergence, 125 g ai/ha, 0 to 100 scale, 0 = no effect, 100 = complete control
[14] = Preemergence, 500 g ai/ha, 0 to 100 scale, 0 = no effect, 100 = complete control
[15] = 250 g ai/ha, flooded paddy test, visual rating on 0 to 100 scale (0 no effect, 100 complete control) after 13 to 15 days
[16] = 62 g ai/ha, scale of 0 to 100 where 0 is no effect and 100 is complete control
[17] = 125 g ai/ha, scale 0 to 100, 0 is no effect, 100 is complete control
[18] = Flood, 31 g ai/ha, scale 0 to 100 (0 no effect, 100 complete control)

Cc1cccc(-c2ncc(C(=O)C3=C(O)CCCC3=O)c(=O)n2-c2ccc(F)cc2C)c1 [Compound 192]
60: Plant response rating, Barnyardgrass [1, 11] | Plant response rating, Pigweed [5, 11] | Plant response rating, Velvetleaf [6, 14] | Plant response rating, Ducksalad [9, 16] | Ducksalad plant response rating [9, 18] | Plant response rating, Flood, Sedge, Umbrella [10, 15]
40: Corn plant response rating (corn (Zea mays); [12]) | Plant response rating, Corn (corn (Zea mays); [13]) | Plant response rating, Corn (corn (Zea mays); [14]) | Plant response rating, Foxtail, Giant [2, 14] | Plant response rating, Crabgrass, Large [3, 14] | Plant response rating, Sedge, Umbrella [10, 16]
70: Foxtail, Giant plant response rating [2, 12] | Morningglory plant response rating [4, 12] | Plant response rating, Velvetleaf [6, 11]
100: Velvetleaf plant response rating [6, 12]
10: Plant response rating, Barnyardgrass [1, 13] | Plant response rating, Crabgrass, Large [3, 13]
20: Plant response rating, Wheat [7, 14] | Plant response rating, Flood, Rice (rice (Oryza sativa); [15])
90: Barnyardgrass plant response rating [1, 12]
50: Plant response rating, Foxtail, Giant [2, 11] | Plant response rating, Pigweed [5, 14] | Plant response rating, Sedge, Umbrella [10, 17]
75: Plant response rating, Flood, Ducksalad [9, 15] | Plant response rating, Ducksalad [9, 17]
0: Plant response rating, Corn (corn (Zea mays); [11]) | Plant response rating, Foxtail, Giant [2, 13] | Plant response rating, Morningglory ([4]; 125 g ai/ha) | Plant response rating, Morningglory ([4]; 500 g ai/ha) | Plant response rating, Pigweed [5, 13] | Plant response rating, Velvetleaf [6, 13] | Plant response rating, Wheat [7, 11] | Wheat plant response rating [7, 12] | Plant response rating, Wheat [7, 13] | Plant response rating, Flood, Barnyardgrass [8, 15] | Plant response rating, Barnyardgrass [8, 16] | Plant response rating, Barnyardgrass [8, 17] | Barnyardgrass plant response rating [8, 18] | Plant response rating, Rice (rice (Oryza sativa); [16]) | Plant response rating, Rice (rice (Oryza sativa); [17]) | Rice plant response rating (rice (Oryza sativa); [18]) | Sedge, Umbrella plant response rating [10, 18]
80: Crabgrass, Large plant response rating [3, 12] | Pigweed plant response rating [5, 12]
30: Plant response rating, Barnyardgrass [1, 14] | Plant response rating, Crabgrass, Large [3, 11]
